Each structure is given as a SMILES string.

The target in one assay is T1, Nox5 (Homo sapiens, UniProt Q96PH1).
T1 sequence (Q96PH1 1-765): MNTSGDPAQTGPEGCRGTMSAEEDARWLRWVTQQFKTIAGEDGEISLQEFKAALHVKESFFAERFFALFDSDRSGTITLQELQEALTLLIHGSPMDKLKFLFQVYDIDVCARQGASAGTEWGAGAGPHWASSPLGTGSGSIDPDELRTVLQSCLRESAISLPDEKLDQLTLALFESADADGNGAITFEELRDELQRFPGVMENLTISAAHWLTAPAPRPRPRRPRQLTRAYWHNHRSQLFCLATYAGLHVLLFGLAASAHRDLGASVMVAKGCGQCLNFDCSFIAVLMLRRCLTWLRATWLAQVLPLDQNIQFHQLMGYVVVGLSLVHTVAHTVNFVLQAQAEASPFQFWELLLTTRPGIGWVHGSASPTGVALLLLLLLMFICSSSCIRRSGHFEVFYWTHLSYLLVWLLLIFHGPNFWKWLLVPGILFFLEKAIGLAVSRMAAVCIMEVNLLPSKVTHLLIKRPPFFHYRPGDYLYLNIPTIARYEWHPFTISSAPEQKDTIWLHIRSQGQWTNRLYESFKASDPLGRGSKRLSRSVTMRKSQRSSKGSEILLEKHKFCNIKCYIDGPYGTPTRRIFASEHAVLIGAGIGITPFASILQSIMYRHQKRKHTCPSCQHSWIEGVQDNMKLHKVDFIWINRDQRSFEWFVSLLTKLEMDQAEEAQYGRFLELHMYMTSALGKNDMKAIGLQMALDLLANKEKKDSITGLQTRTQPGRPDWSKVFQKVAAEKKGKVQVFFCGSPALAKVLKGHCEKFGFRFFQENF
The assay can be described thus: chemiluminescence of ROS in ionomycin-stimulated Nox5-transfected HEK cells. Format: cell-based. The text has this: chemiluminescence of ROS in ionomycin-stimulated Nox5-transfected HEK cells on Nox5 | stably transfected Nox5 overexpressing HEK cells were stimulated with ionomycin. This activity could be quenched completely by DPI

A further assay has as its target T2, NADPH oxidase 4 (Nox4) (Homo sapiens, UniProt Q9NPH5).
T2 sequence (Q9NPH5 1-578): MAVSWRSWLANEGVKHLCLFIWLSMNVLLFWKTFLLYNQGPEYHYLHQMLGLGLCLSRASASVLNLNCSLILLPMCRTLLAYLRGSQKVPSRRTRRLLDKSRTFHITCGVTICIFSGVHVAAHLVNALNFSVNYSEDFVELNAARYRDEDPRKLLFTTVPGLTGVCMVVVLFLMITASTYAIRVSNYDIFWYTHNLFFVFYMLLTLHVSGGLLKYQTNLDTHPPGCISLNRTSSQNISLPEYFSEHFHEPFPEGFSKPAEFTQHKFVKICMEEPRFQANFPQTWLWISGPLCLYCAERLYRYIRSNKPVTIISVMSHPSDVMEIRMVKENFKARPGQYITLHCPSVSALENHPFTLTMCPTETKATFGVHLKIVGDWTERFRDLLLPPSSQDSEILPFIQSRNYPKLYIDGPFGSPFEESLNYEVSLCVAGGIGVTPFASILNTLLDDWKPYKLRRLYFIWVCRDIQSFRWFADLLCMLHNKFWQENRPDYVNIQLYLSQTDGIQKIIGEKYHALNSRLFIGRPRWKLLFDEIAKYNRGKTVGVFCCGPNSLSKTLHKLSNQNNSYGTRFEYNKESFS
The assay can be described thus: luminol chemiluminescence of ROS in HEK cells expressing Nox4, normalized to pcDNA cells; mitochondrial ROS scavenging counterscreen. It counts as cell-based.

Regarding `c1ccc2c(c1)[I+]c1ccccc1-2` [DPI, diphenyleneiodonium], the “chemiluminescence of ROS in ionomycin-stimulated Nox5-transfected HEK cells” value at Nox5 was “stably transfected Nox5 overexpressing HEK cells were stimulated with ionomycin. This activity could be quenched completely by DPI”. In general, IC50 refers to the concentration that inhibits the measured activity by half. A high value points to weaker potency. As to `O=C(/C=C/c1ccc(O)c(O)c1)O[C@H](Cc1ccc(O)c(O)c1)C(=O)O` [RA, rosmarinic acid], at NADPH oxidase 4 (Nox4), it took 1000 nM to reach half-maximal inhibition (IC50).

(Values after paper PMC6017630, “Identification of the NADPH Oxidase 4 Inhibiting Principle of Lycopus europaeus” (Molecules : A Journal of Synthetic Chemistry and Natural …, 2018).)
